Results: PubChem BioAssay AID850 (SRMLSC, 2007)
Active and inactive are the calls of the source. How the calls were made is not given here.

Tests used:
[1] = system: Saccharomyces cerevisiae growth inhibition, permissive control; test: yeast lifespan-shortening chemical project counter-assay, dose-response inhibition of growth under permissive conditions (AID 850);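 further: growth read as optical density after one day of incubation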
[2] = as above; conditions: Saccharomyces cerevisiae growth inhibition, permissive control, measured here: maximum growth inhibition, stronger effect = higher value

SMILES: O=C(Nc1nnc(C2CC2)s1)c1ccccn1
- IC50 [1]: > 100 µM (inactive)
- inhibition ([2]; at 50 µM): 22.8%

SMILES: CCCCCCCCCCn1c2c(c(=N)c3c1CCC3)CCC2
- IC50 [1]: 12 µM
- inhibition ([2]; at 50 µM): 100%

SMILES: OC(Cn1cncn1)(c1ccccc1)c1ccccc1
- IC50 [1]: 6.82 µM
- inhibition ([2]; at 12.5 µM): 90.3%

SMILES: O=S(=O)(/N=C(\Sc1ccc(Cl)cc1)c1ccccc1)c1ccccc1
- IC50 [1]: 33.3 µM
- inhibition ([2]; at 50 µM): 74%

SMILES: O/N=C/c1cc(Cl)ccc1OCc1cccc2ccccc12
- IC50 [1]: > 100 µM (inactive)
- inhibition ([2]; at 0.391 µM): 11.2%

SMILES: C=CCN1C(C(=O)c2ccccc2)=C(OC(=O)COc2ccccc2)c2ccccc2S1(=O)=O
- IC50 [1]: 43.1 µM
- inhibition ([2]; at 50 µM): 65.8%

SMILES: Cc1cccc(OCCN2CSC(=S)N(C)C2)c1
- IC50 [1]: 10.6 µM
- inhibition ([2]; at 50 µM): 87.3%

SMILES: Nc1ccc(SC(F)(F)F)cc1C(=O)c1ccccc1
- IC50 [1]: > 100 µM (inactive)
- inhibition ([2]; at 0.391 µM): 14.9%

SMILES: Cc1ccc(CNC(=O)c2ccc(Cn3nc(C)c(Cl)c3C)o2)cc1
- IC50 [1]: 17.2 µM
- inhibition ([2]; at 50 µM): 99.8%

SMILES: O=C1c2ccc3c4c(ccc(c24)C(=O)N1NC(=O)C(F)(F)F)CC3
- IC50 [1]: > 100 µM (inactive)
- inhibition ([2]; at 0.195 µM): 15.2%

SMILES: O=[N+]([O-])c1ccc(N/N=C2/CCCCC2c2ccccn2)cc1 (configuration not stated)
- IC50 [1]: 1.94 µM
- inhibition ([2]; at 50 µM): 98.4%

SMILES: CC(C)(C)C(O)C(Oc1ccc(Cl)cc1)n1cncn1 (configuration not stated)
- IC50 [1]: 2.15 µM
- inhibition ([2]; at 12.5 µM): 95.1%

SMILES: CCCCOC(=O)n1c(=S)oc2cc(Cl)ccc21
- IC50 [1]: 14.5 µM
- inhibition ([2]; at 50 µM): 99.8%

SMILES: Cc1ccc(-c2nn(C(C)(C)C)c3ncnc(N)c23)cc1
- IC50 [1]: 0.458 µM
- inhibition ([2]; at 50 µM): 84.2%

SMILES: Cc1conc1NC(c1cccs1)c1ccc2cccnc2c1O (configuration not stated)
- IC50 [1]: 44.9 µM
- inhibition ([2]; at 50 µM): 69.2%

SMILES: CCCn1c(Nc2nc3ccccc3n2C)nc2ccccc21
- IC50 [1]: 45.1 µM
- inhibition ([2]; at 50 µM): 97.9%

SMILES: O=[N+]([O-])c1ccc(O)c2ncccc12
- IC50 [1]: 0.483 µM
- inhibition ([2]; at 12.5 µM): 99.4%

SMILES: CCOC(=O)N1CCN(C(=O)Cn2nc(C)c3sc4ccccc4c3c2=O)CC1
- IC50 [1]: > 100 µM (inactive)
- inhibition ([2]; at 25 µM): 12.1%

SMILES: COc1ccc(-c2nnc3c4ccccc4c(C)nn23)cc1
- IC50 [1]: > 100 µM (inactive)
- inhibition ([2]; at 1.563 µM): 11.6%

SMILES: FC(F)Sc1ccc(Nc2ncnc3nc[nH]c23)cc1
- IC50 [1]: > 100 µM (inactive)
- inhibition ([2]; at 1.563 µM): 11.9%

SMILES: CCN1/C(=C(\O)c2ccccc2)C(=O)c2ccccc2S1(=O)=O
- IC50 [1]: > 100 µM (inactive)
- inhibition ([2]; at 1.563 µM): 19.4%

SMILES: COc1ccc2c(c1)S/C(=C\C(=O)c1ccncc1)N2C
- IC50 [1]: 6.24 µM
- inhibition ([2]; at 50 µM): 92.6%

SMILES: C=CCc1c(C)c(C#N)c2nc3ccccc3n2c1NCCN(C)C
- IC50 [1]: 12.5 µM
- inhibition ([2]; at 50 µM): 98.6%

SMILES: N/C(Cc1ccc(Cl)cc1)=N\OC(=O)C1CCCCC1
- IC50 [1]: 15.8 µM
- inhibition ([2]; at 50 µM): 98.8%

SMILES: Oc1cccc(C=NCc2ccccc2)c1O
- IC50 [1]: 10.4 µM
- inhibition ([2]; at 50 µM): 98.8%

SMILES: CC1(C)C(C=C(Cl)Cl)C1C(=O)Nc1ccc([N+](=O)[O-])cc1 (configuration not stated)
- IC50 [1]: > 100 µM (inactive)
- inhibition ([2]; at 50 µM): 15.4%

SMILES: c1ccc2nc3c(nc2c1)[nH]c1ccccc13
- IC50 [1]: > 100 µM (inactive)
- inhibition ([2]; at 50 µM): 19.1%

SMILES: O=C(Cc1ccccc1)NCCc1cn2ccsc2n1
- IC50 [1]: > 100 µM (inactive)
- inhibition ([2]; at 0.391 µM): 26%

SMILES: Cc1oc(-c2cccs2)nc1CS(=O)CC(=O)NC1CCCCCC1 (configuration not stated)
- IC50 [1]: > 100 µM (inactive)
- inhibition ([2]; at 6.25 µM): 18.9%

SMILES: CC1CCCC2(C1)NC(=S)N(c1ccccc1)N2 (configuration not stated)
- IC50 [1]: 20.5 µM
- inhibition ([2]; at 50 µM): 78.8%

SMILES: CN1CCN(C2=Cc3ccc(Cl)cc3Sc3ccc(F)cc32)CC1
- IC50 [1]: 27.2 µM
- inhibition ([2]; at 50 µM): 99.8%

SMILES: CCOC(=O)c1c(N)sc(C(O)(C(F)(F)F)C(F)(F)F)c1-c1ccc(Cl)cc1
- IC50 [1]: > 100 µM (inactive)
- inhibition ([2]; at 0.781 µM): 7.92%

SMILES: Oc1c(Br)cc(Br)cc1Oc1ccc(Br)cc1Br
- IC50 [1]: > 100 µM (inactive)
- inhibition ([2]; at 3.125 µM): 4.84%

SMILES: O=C(O)CCn1cc(/C=C/C(=O)c2ccc(Cl)cc2)c(-c2ccc(Br)cc2)n1
- IC50 [1]: > 100 µM (inactive)
- inhibition ([2]; at 12.5 µM): 15.3%

SMILES: Nc1c(C(=O)NCCc2ccccc2)c2nc3ccccc3nc2n1CCN1CCOCC1
- IC50 [1]: 42.4 µM
- inhibition ([2]; at 50 µM): 99.8%

SMILES: Cc1ccccc1C(=O)NNC(=S)NC(=O)COc1ccccc1
- IC50 [1]: 26.5 µM
- inhibition ([2]; at 50 µM): 73.9%

SMILES: CCCCCCCCCCCCCCCC[n+]1ccc(C(N)=O)cc1
- IC50 [1]: 0.545 µM
- inhibition ([2]; at 25 µM): 100%

SMILES: Cc1cc(Cl)ccc1N=c1ssnc1Cl
- IC50 [1]: > 100 µM (inactive)
- inhibition ([2]; at 12.5 µM): 14%

SMILES: Cc1ccc(-c2nc(N)sc2-c2ccccc2)cc1C
- IC50 [1]: > 100 µM (inactive)
- inhibition ([2]; at 6.25 µM): 16%

SMILES: O=[N+]([O-])c1cc(Cc2ccccc2)cc(C=Nc2ccc(N3CCOCC3)cc2)c1O
- IC50 [1]: 15 µM
- inhibition ([2]; at 25 µM): 82.7%

SMILES: CCN1/C(=C/c2ccc3cc(C)ccc3[n+]2CC)Sc2ccccc21
- IC50 [1]: 3.44 µM
- inhibition ([2]; at 50 µM): 99.4%
